Reference: patent US7709643B2, “Synthesis of sodium narcistatin and related compounds” (Arizona Board of Regents, a body corporate of the State of …, priority 2005, dated 2010)
≈ marks a conversion by molar mass, not a printed value.

What was measured:
[1] = Aqueous solubility at 25° C.; assay type: physicochemical
BXPC-3 = experiment: Human cancer cell line minipanel, Pancreas-a BXPC-3; assay type: cell-based
Procedure: (§1) The cyclic phosphate prodrugs, along with the parent compounds were evaluated against a minipanel of human cancer cell lines and murine P388 lymphocytic leukemia.

MCF-7 = experiment: Human cancer cell line minipanel, Breast MCF-7; assay type: cell-based
Procedure: as §1

SF268 = experiment: Human cancer cell line minipanel, CNS SF268; assay type: cell-based
Procedure: as §1

NCI-H460 = experiment: Human cancer cell line minipanel, Lung-NSC NCI-H460; assay type: cell-based
Procedure: as §1

KM20L2 = experiment: Human cancer cell line minipanel, Colon KM20L2; assay type: cell-based
Procedure: as §1

DU-145 = experiment: Human cancer cell line minipanel, Prostate DU-145; assay type: cell-based
Procedure: as §1

[2] = tested on: NCI panel of cancer cell lines; conditions: J. Nat. Prod. 56:1682-1687, 1993; cited from earlier work
RNA viruses = conditions: J. Nat. Prod. 55:1569-1581; 1992; cited from earlier work
[3] = tested on: minipanel of human cancer cell lines and murine P388 lymphocytic leukemia; experiment: Minipanel of human cancer cell lines and murine P388 lymphocytic leukemia (summary in words); assay type: cell-based; conditions: summary of the cancer cell line evaluations of Table 2
Procedure: as §1
The corresponding 3,5-cyclic phosphates were less inhibitory under the experimental conditions employed. However, cleavage of the phosphate groups is expected to be very effective in vivo and such anticancer evaluations are now underway as part of the further preclinical development of these new anticancer drug candidates. (Pettit, G. R., et al., J. Nat. Prod. 2003, 66, 92-96.), (Dowlati, A., et al., Cancer Research 2002, 62, 3408-3416.), (Dziba, J. M., et al., Thyroid 2002, 12, 1063-1070.), (Eikesdal, H. P., et al., Cancer Lett. 2002, 178, 209-217.), (Prise, V., et al., Int. J. Oncology 2002, 21, 717-726.), (Hill, S. A., et al., Int. J. Cancer 2002, 102, 70-74.)

In the case of `O=C1N[C@@H]2C(=C[C@H](O)[C@@H](O)[C@H]2O)c2cc3c(cc21)OCO3` [2c, 7-deoxynarciclasine, reference compound], the “Aqueous Solubility 25° C.” value [1] is reported as less than 1000 µg/mL, the “GI50 Pancreas-a BXPC-3” value (BXPC-3) is reported as 0.070 µg/mL (≈ 0.24 µM) and the “GI50 Breast MCF-7” value (MCF-7) is reported as 0.046 µg/mL (≈ 0.158 µM). The “GI50 CNS SF268” value (SF268) was 0.120 µg/mL (≈ 0.412 µM), the “GI50 Lung-NSC NCI-H460” value (NCI-H460) was 0.053 µg/mL (≈ 0.182 µM) and the “GI50 Colon KM20L2” value (KM20L2) was 0.084 µg/mL (≈ 0.288 µM). The “GI50 Prostate DU-145” value (DU-145) was 0.051 µg/mL (≈ 0.175 µM).

For `O=C1NC2C(CC(O)C(O)C2O)c2cc3c(c(O)c21)OCO3` (stereo not drawn) [3a, cis-dihydronarciclasine, reference compound], the GI50 [2] is given as 3800 nM and the “activity against a range of RNA viruses” value (RNA viruses) is given as “completely inactive”.

In the case of `O=C1N[C@H]2[C@@H]3OP(=O)([O-])O[C@@H]3[C@@H](O)C[C@@H]2c2cc3c(c(O)c21)OCO3.[Na+]` (relative stereo) [compound 12, Sodium trans-dihydro-narcistatin], the “GI50 Pancreas-a BXPC-3” value (BXPC-3) is reported as 5.6 µg/mL, the “GI50 Breast MCF-7” value (MCF-7) is reported as 4.6 µg/mL and the “GI50 CNS SF268” value (SF268) is reported as 8.8 µg/mL. The “GI50 Lung-NSC NCI-H460” value (NCI-H460) was 7.8 µg/mL, the “GI50 Colon KM20L2” value (KM20L2) was 9.6 µg/mL and the “GI50 Prostate DU-145” value (DU-145) was 5.2 µg/mL.

For `O=C1N[C@H]2[C@@H]3OP(=O)([O-])O[C@@H]3[C@@H](O)C[C@@H]2c2cc3c(c(O)c21)OCO3.[Li+]` (relative stereo) [12a, Lithium trans-dihydro-narcistatin], the “GI50 Pancreas-a BXPC-3” value (BXPC-3) was greater than 1 µg/mL, the “GI50 Breast MCF-7” value (MCF-7) was greater than 1 µg/mL and the “GI50 CNS SF268” value (SF268) was greater than 1 µg/mL. For the same molecule, the “GI50 Lung-NSC NCI-H460” value (NCI-H460) was greater than 1 µg/mL, the “GI50 Colon KM20L2” value (KM20L2) was greater than 1 µg/mL and the “GI50 Prostate DU-145” value (DU-145) was greater than 1 µg/mL.

In the case of `O=C1N[C@H]2[C@@H]3OP(=O)([O-])O[C@@H]3[C@@H](O)C[C@@H]2c2cc3c(cc21)OCO3.[K+]` (relative stereo) [11b, Potassium 7-deoxy-trans-dihydro-narcistatin], the “GI50 Pancreas-a BXPC-3” value (BXPC-3) is reported as greater than 1 µg/mL, the “GI50 Breast MCF-7” value (MCF-7) is reported as greater than 1 µg/mL and the “GI50 CNS SF268” value (SF268) is reported as greater than 1 µg/mL. The “GI50 Lung-NSC NCI-H460” value (NCI-H460) was greater than 1 µg/mL, the “GI50 Colon KM20L2” value (KM20L2) was greater than 1 µg/mL and the “GI50 Prostate DU-145” value (DU-145) was greater than 1 µg/mL.

In the case of `O=C1N[C@H]2[C@@H]3OP(=O)([O-])O[C@@H]3[C@@H](O)C[C@@H]2c2cc3c(cc21)OCO3.[Na+]` (relative stereo) [compound 11, Sodium 7-Deoxy-trans-dihydro-narcistatin], the “GI50 Pancreas-a BXPC-3” value (BXPC-3) is reported as greater than 10 µg/mL, the “GI50 Breast MCF-7” value (MCF-7) is reported as 7.2 µg/mL and the “GI50 CNS SF268” value (SF268) is reported as greater than 10 µg/mL. The “GI50 Lung-NSC NCI-H460” value (NCI-H460) was greater than 10 µg/mL, the “GI50 Colon KM20L2” value (KM20L2) was greater than 10 µg/mL and the “GI50 Prostate DU-145” value (DU-145) was greater than 10 µg/mL.

In the case of `O=C1N[C@@H]2C(=C[C@H](O)[C@H]3OP(=O)([O-])O[C@H]32)c2cc3c(cc21)OCO3.[K+]` [10b, Potassium 7-Deoxy-narcistatin], the “GI50 Pancreas-a BXPC-3” value (BXPC-3) is reported as greater than 1 µg/mL, the “GI50 Breast MCF-7” value (MCF-7) is reported as greater than 1 µg/mL and the “GI50 CNS SF268” value (SF268) is reported as greater than 1 µg/mL. The “GI50 Lung-NSC NCI-H460” value (NCI-H460) was greater than 1 µg/mL, the “GI50 Colon KM20L2” value (KM20L2) was greater than 1 µg/mL and the “GI50 Prostate DU-145” value (DU-145) was greater than 1 µg/mL.

For `O=C1N[C@@H]2C(=C[C@H](O)[C@H]3OP(=O)([O-])O[C@H]32)c2cc3c(cc21)OCO3.[Na+]` [compound 10, Sodium 7-Deoxy-narcistatin], the “GI50 Pancreas-a BXPC-3” value (BXPC-3) was 5.3 µg/mL, the “GI50 Breast MCF-7” value (MCF-7) was 4.0 µg/mL and the “GI50 CNS SF268” value (SF268) was 6.3 µg/mL. The “GI50 Lung-NSC NCI-H460” value (NCI-H460) was 4.7 µg/mL, the “GI50 Colon KM20L2” value (KM20L2) was 5.6 µg/mL and the “GI50 Prostate DU-145” value (DU-145) was 3.9 µg/mL.

With `O=C1N[C@H]2[C@H](O)[C@H](O)[C@@H](O)C[C@@H]2c2cc3c(c(O)c21)OCO3` (relative stereo) [1a, trans-dihydronarciclasine] the “Aqueous Solubility 25° C.” value [1] was less than 1000 µg/mL, the “GI50 Pancreas-a BXPC-3” value (BXPC-3) was 0.012 µg/mL (≈ 0.0388 µM) and the “GI50 Breast MCF-7” value (MCF-7) was 0.0053 µg/mL (≈ 0.0171 µM). For the same molecule, the “GI50 CNS SF268” value (SF268) was 0.020 µg/mL (≈ 0.0647 µM), the “GI50 Lung-NSC NCI-H460” value (NCI-H460) was 0.0092 µg/mL (≈ 0.0297 µM) and the “GI50 Colon KM20L2” value (KM20L2) was 0.015 µg/mL (≈ 0.0485 µM). For the same molecule, the “GI50 Prostate DU-145” value (DU-145) was 0.0066 µg/mL (≈ 0.0213 µM), the “cancer cell growth inhibitory activity (in words)” value [3] was “strong cancer cell growth inhibitory activity” and the GI50 [2] was 12.6 nM. For the same molecule, the “activity against a range of RNA viruses” value (RNA viruses) was “strong activity”.

With `O=C1N[C@H]2[C@H](O)[C@H](O)[C@@H](O)C[C@@H]2c2cc3c(cc21)OCO3` (relative stereo) [1c, 7-deoxy-trans-dihydronarciclasine] the “Aqueous Solubility 25° C.” value [1] was less than 1000 µg/mL, the “GI50 Pancreas-a BXPC-3” value (BXPC-3) was 0.046 µg/mL (≈ 0.157 µM) and the “GI50 Breast MCF-7” value (MCF-7) was 0.034 µg/mL (≈ 0.116 µM). The “GI50 CNS SF268” value (SF268) was 0.059 µg/mL (≈ 0.201 µM), the “GI50 Lung-NSC NCI-H460” value (NCI-H460) was 0.043 µg/mL (≈ 0.147 µM) and the “GI50 Colon KM20L2” value (KM20L2) was 0.051 µg/mL (≈ 0.174 µM). The “GI50 Prostate DU-145” value (DU-145) was 0.040 µg/mL (≈ 0.136 µM) and the “cancer cell growth inhibitory activity (in words)” value [3] was “strong cancer cell growth inhibitory activity”.

For `O=C1N[C@@H]2C(=C[C@H](O)[C@H]3OP(=O)([O-])O[C@H]32)c2cc3c(cc21)OCO3.[Li+]` [10a, Lithium 7-Deoxy-narcistatin], the “GI50 Pancreas-a BXPC-3” value (BXPC-3) was greater than 1 µg/mL, the “GI50 Breast MCF-7” value (MCF-7) was greater than 1 µg/mL and the “GI50 CNS SF268” value (SF268) was greater than 1 µg/mL. The “GI50 Lung-NSC NCI-H460” value (NCI-H460) was greater than 1 µg/mL, the “GI50 Colon KM20L2” value (KM20L2) was greater than 1 µg/mL and the “GI50 Prostate DU-145” value (DU-145) was greater than 1 µg/mL.

For `O=C1N[C@H]2[C@@H]3OP(=O)([O-])O[C@@H]3[C@@H](O)C[C@@H]2c2cc3c(c(O)c21)OCO3.[K+]` (relative stereo) [12b, Potassium trans-dihydro-narcistatin], the “GI50 Pancreas-a BXPC-3” value (BXPC-3) was greater than 1 µg/mL, the “GI50 Breast MCF-7” value (MCF-7) was 0.64 µg/mL and the “GI50 CNS SF268” value (SF268) was greater than 1 µg/mL. The “GI50 Lung-NSC NCI-H460” value (NCI-H460) was greater than 1 µg/mL, the “GI50 Colon KM20L2” value (KM20L2) was greater than 1 µg/mL and the “GI50 Prostate DU-145” value (DU-145) was 0.54 µg/mL.

With `O=C1N[C@H]2[C@@H]3OP(=O)([O-])O[C@@H]3[C@@H](O)C[C@@H]2c2cc3c(cc21)OCO3.[Li+]` (relative stereo) [11a, Lithium 7-deoxy-trans-dihydro-narcistatin] the “GI50 Pancreas-a BXPC-3” value (BXPC-3) was greater than 1 µg/mL, the “GI50 Breast MCF-7” value (MCF-7) was greater than 1 µg/mL and the “GI50 CNS SF268” value (SF268) was greater than 1 µg/mL. The “GI50 Lung-NSC NCI-H460” value (NCI-H460) was greater than 1 µg/mL, the “GI50 Colon KM20L2” value (KM20L2) was greater than 1 µg/mL and the “GI50 Prostate DU-145” value (DU-145) was greater than 1 µg/mL.
